Consider 8 molecules from ChEMBL document CHEMBL1151070 (Bioorg Med Chem Lett, 1995).

Assay [1] concerns the target T1, Protein kinase C beta type (Homo sapiens, UniProt P05771). In words: Inhibition of human Protein kinase C beta 1.
Assay [2] concerns the target T1, Protein kinase C beta type. In words: Inhibition of human Protein kinase C beta 2.
Assay [3] concerns the target Protein kinase C delta type (Homo sapiens, UniProt Q05655). In words: Inhibition of human Protein kinase C delta.
Assay [4] concerns the target Protein kinase C eta type (Homo sapiens, UniProt P24723). In words: Inhibition of human Protein Kinase C eta.
In assay [5] the target is T2, Protein kinase C epsilon type (Homo sapiens, UniProt Q02156).
T2 sequence (Q02156 whole entry): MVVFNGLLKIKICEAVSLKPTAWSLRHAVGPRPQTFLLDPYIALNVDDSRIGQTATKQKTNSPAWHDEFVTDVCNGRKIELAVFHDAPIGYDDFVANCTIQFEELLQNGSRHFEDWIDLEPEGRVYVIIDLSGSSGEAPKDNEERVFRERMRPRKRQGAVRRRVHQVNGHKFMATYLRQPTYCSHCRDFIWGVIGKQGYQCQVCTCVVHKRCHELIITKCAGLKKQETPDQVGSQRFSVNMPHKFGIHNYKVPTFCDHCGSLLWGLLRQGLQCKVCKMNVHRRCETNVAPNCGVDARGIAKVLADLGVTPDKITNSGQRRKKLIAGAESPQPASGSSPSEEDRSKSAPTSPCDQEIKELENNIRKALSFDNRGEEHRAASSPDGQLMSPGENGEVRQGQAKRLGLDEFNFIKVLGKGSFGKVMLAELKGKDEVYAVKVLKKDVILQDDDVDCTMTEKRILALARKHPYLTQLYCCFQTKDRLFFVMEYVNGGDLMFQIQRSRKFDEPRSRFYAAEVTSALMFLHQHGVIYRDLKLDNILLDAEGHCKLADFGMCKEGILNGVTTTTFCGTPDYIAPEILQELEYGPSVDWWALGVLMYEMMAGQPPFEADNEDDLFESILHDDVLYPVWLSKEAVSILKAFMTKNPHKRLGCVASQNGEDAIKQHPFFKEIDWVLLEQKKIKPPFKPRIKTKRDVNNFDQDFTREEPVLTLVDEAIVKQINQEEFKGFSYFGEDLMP
In words: Inhibition of human Protein kinase C epsilon.

The target in assay [6] is Protein kinase C gamma type (Homo sapiens, UniProt P05129). As to the kind of experiment: Inhibition of human Protein kinase C gamma.
Assay [7] has as its target Protein kinase C alpha type (Homo sapiens, UniProt P17252). In words: Inhibition of human Protein kinase C alpha.
The target of assay [8] is T3, Protein kinase C zeta type (Homo sapiens, UniProt Q05513).
T3 sequence (Q05513 whole entry): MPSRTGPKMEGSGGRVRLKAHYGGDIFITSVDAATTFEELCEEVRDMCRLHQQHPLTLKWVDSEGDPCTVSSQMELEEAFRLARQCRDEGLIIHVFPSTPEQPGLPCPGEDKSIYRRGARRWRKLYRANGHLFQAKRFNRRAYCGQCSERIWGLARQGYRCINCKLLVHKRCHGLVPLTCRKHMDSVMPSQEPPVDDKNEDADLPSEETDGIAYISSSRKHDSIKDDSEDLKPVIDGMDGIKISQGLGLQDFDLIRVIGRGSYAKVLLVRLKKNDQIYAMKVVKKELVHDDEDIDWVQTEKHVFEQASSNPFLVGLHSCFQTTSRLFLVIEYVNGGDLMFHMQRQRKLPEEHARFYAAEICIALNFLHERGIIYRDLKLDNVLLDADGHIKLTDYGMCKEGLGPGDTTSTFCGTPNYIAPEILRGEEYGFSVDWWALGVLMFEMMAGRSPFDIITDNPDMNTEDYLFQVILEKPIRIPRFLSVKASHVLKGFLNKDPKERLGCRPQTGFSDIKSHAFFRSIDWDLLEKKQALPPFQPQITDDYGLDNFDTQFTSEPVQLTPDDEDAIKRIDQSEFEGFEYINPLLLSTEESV
In words: Inhibition of Protein kinase C zeta.

Chain of Protein kinase C eta type (P24723 whole entry): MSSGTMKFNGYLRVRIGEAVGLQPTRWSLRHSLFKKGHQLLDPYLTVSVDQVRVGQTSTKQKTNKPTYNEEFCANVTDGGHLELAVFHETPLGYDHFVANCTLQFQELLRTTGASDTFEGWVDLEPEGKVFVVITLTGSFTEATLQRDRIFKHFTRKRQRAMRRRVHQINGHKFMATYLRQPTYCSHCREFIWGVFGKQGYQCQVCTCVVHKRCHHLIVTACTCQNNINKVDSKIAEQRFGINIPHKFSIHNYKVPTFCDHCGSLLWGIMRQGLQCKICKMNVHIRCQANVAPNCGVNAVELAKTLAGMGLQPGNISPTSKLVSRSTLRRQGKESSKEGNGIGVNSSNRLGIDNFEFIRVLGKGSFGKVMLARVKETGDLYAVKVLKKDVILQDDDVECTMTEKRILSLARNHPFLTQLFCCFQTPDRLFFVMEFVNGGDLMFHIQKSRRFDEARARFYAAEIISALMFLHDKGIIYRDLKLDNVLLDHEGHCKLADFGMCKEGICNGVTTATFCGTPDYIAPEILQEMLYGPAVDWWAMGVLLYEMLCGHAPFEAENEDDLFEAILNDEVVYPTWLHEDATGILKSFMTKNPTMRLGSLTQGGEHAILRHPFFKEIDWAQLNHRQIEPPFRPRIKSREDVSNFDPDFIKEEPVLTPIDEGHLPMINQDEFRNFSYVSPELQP
T1 sequence (P05771 whole entry): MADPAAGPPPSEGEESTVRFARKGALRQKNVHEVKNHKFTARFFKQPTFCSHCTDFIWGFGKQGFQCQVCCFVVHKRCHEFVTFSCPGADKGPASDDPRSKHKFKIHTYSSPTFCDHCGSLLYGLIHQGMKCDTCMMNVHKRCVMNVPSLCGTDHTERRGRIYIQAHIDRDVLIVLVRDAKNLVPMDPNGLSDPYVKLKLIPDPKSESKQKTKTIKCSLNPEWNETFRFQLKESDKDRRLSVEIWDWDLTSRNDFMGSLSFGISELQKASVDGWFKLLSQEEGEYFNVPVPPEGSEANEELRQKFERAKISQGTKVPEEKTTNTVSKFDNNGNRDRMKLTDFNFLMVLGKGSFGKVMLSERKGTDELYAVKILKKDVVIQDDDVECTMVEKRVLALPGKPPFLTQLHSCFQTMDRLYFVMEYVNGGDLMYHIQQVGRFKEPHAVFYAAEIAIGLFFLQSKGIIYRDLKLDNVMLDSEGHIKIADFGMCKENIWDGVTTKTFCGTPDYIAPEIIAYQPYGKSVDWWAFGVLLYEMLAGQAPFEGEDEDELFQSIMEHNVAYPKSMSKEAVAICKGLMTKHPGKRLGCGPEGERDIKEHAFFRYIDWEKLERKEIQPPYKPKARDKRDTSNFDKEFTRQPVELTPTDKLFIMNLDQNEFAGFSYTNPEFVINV
Chain of Protein kinase C delta type (Q05655 whole entry): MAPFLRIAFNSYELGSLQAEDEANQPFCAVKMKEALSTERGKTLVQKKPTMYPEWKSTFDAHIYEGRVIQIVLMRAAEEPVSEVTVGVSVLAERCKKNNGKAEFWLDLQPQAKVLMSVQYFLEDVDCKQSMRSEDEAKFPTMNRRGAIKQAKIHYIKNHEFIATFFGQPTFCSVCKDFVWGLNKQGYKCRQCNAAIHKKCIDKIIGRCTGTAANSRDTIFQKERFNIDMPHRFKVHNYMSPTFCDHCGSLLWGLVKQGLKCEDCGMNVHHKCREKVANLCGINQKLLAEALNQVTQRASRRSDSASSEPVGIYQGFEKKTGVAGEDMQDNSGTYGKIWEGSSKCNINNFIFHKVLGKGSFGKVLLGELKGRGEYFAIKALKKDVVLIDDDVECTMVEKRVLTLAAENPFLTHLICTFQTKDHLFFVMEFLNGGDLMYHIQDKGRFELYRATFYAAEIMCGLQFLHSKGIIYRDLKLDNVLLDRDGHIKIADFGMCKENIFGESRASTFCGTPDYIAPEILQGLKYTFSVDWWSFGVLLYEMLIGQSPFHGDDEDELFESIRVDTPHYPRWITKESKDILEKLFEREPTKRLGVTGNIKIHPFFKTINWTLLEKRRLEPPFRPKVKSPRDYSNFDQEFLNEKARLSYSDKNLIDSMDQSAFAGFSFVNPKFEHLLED

A word on the IC50: it is the point on the concentration scale where inhibition reaches its midpoint. As to `O=C(N[C@H]1C[C@H](CO)C[C@H]1OC(=O)c1cc(O)c(C(=O)c2c(O)cccc2C(=O)O)c(O)c1)c1ccc(O)cc1`, the IC50 came to 4 nM in assay [1]; 3 nM in assay [2]; 4 nM in assay [3]; 2 nM in assay [4]; 160 nM in assay [5]; 5 nM in assay [6]. Also, the IC50 in assay [7] is 10 nM.

As for `N[C@@H]1C[C@H](NC(=O)c2ccc(O)cc2)[C@H](OC(=O)c2cc(O)c(C(=O)c3c(O)cccc3C(=O)O)c(O)c2)C1`, the IC50 in assay [1] is 4 nM; in assay [2], 2 nM; in assay [3], 5 nM; in assay [8], 1200 nM; in assay [4] it was 2 nM; in assay [5], 10 nM. Besides, the half-maximal inhibitory concentration (IC50) turned out to be 5 nM in assay [6] and 20 nM in assay [7].

Take `NC[C@H]1C[C@H](NC(=O)c2ccc(O)cc2)[C@H](OC(=O)c2cc(O)c(C(=O)c3c(O)cccc3C(=O)O)c(O)c2)C1`: the concentration for half-maximal inhibition (IC50) in assay [1] turned out to be 4 nM; in assay [2] it was 4 nM; in assay [3], 6 nM; in assay [8], 2800 nM; in assay [4] it was 3 nM; in assay [5], 30 nM. The IC50 is 5 nM in assay [6] and 20 nM in assay [7].

Take `O=C(N[C@H]1C[C@@H](CO)C[C@H]1OC(=O)c1cc(O)c(C(=O)c2c(O)cccc2C(=O)O)c(O)c1)c1ccc(O)cc1`: the IC50 in assay [1] came to 60 nM; in assay [2], 20 nM; in assay [3], 20 nM; in assay [4], 20 nM; in assay [5] it was 260 nM; in assay [6], 45 nM. Further, the IC50 in assay [7] turned out to be 80 nM.

`NC[C@@H]1C[C@H](NC(=O)c2ccc(O)cc2)[C@H](OC(=O)c2cc(O)c(C(=O)c3c(O)cccc3C(=O)O)c(O)c2)C1`: the IC50 amounted to 5 nM in assay [1]; 5 nM in assay [2]; 20 nM in assay [3]; 3100 nM in assay [8]; 3 nM in assay [4]; 30 nM in assay [5]. Moreover, the IC50 in assay [6] was found to be 10 nM; in assay [7], 20 nM.

As for `O=C(N[C@H]1C[C@H](O)C[C@H]1OC(=O)c1cc(O)c(C(=O)c2c(O)cccc2C(=O)O)c(O)c1)c1ccc(O)cc1`, the IC50 in assay [1] worked out at 20 nM; in assay [2], 20 nM; in assay [3], 6 nM; in assay [4], 4 nM; in assay [5] it was 150 nM; in assay [6] it was 30 nM. This molecule also showed an IC50 in assay [7] of 50 nM.

For the molecule `O=C(N[C@@H]1CNCCC[C@H]1OC(=O)c1cc(O)c(C(=O)c2c(O)cccc2C(=O)O)c(O)c1)c1ccc(O)cc1` (racemic) [BALANOL], the results for the half-maximal inhibitory concentration (IC50) in assay [2], in assay [3] and in assay [7] were 40 nM, 30 nM and 70 nM, respectively.

Take `O=C(N[C@H]1C[C@@H](O)C[C@H]1OC(=O)c1cc(O)c(C(=O)c2c(O)cccc2C(=O)O)c(O)c1)c1ccc(O)cc1.O=C(N[C@H]1C[C@H](O)C[C@H]1OC(=O)c1cc(O)c(C(=O)c2c(O)cccc2C(=O)O)c(O)c1)c1ccc(O)cc1` (single isomer, unassigned): the IC50 in assay [1] was 20 nM; in assay [2], 10 nM; in assay [3], 5 nM; in assay [4] it was 3 nM; in assay [5], 100 nM; in assay [6], 20 nM. This molecule registered a half-inhibitory concentration (IC50) in assay [7] of 40 nM.
